This note sets out measurements from paper PMC6680510, “Benzotriazine Di-Oxide Prodrugs for Exploiting Hypoxia and Low Extracellular pH in Tumors” (Molecules, 2019).

The test system of series [1] is SiHa cells. As to the kind of experiment: IC50 assay (inhibition of proliferation, 4 h exposure, SRB). As to conditions: SiHa; for IC50: Homo sapiens, 4 h. In outline: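 Cells exposed to compound for 4 h in titrated medium, then washed and regrown 5 days under standard conditions (oxia, pHe 7.4). Growth read by sulforhodamine B staining; IC50 from 4-parameter logistic regression of duplicate cultures.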

For series [2], the system named is SiHa cells. As to the kind of experiment: Metabolism and uptake of ester 4b in anoxic single cell suspensions. Type of series: in vitro ADME. As to conditions: anoxic SiHa suspensions after addition of 4b (150 μM), at 30 min. An excerpt: If the anionic sidechain of the BTO acids results in low intracellular concentrations, with reductive metabolism occurring largely at the cell surface, the corresponding esters would be expected to provide improved delivery to the intracellular compartment (consistent with their higher cytotoxic potencies, as noted in Section 2.5). To test this, we compared the metabolism of ester 4b (Figure 7A) with its corresponding acid 4a (Figure 7B) by monitoring extracellular concentrations in anoxic SiHa suspensions. The rates of metabolism of both compounds were unaffected by pHe, consistent with the results for 4a in Figure 5B. The ester was metabolized more rapidly than the acid, with only a trace of acid 4a detected transiently as an extracellular metabolite (Figure 7A). The major metabolites were the less polar 1-oxide, 15a, and the 1-oxide of the ester, 16a. In separate experiments with higher initial concentrations of 4b, 15a was again the main extracellular metabolite (Figure 7C, left). […] Compound 4b itself was not detected in the intracellular samples, presumably reflecting a lack of retention in cells and the very low intracellular volume, which will compromise analytical sensitivity (only 2 × 10^6 cells were collected for each analysis in this experiment).
Figure 7 Metabolism of BTO ester 4b and the corresponding acid 4a by anoxic SiHa single cell suspensions (2 × 10^6 cells/mL). (A) Extracellular concentrations following the addition of 4b (50 μM). (B) Extracellular concentrations following the addition of 4a (50 μM). (C) Extracellular (left) and intracellular (right) concentrations following the addition of 4b (150 μM). Values are means and errors are SEM for 3 replicate cultures.

Read-outs that look alike come from different tables or passages of the source.

With `O=C(O)CCc1n[n+]([O-])c2ccccc2[n+]1[O-]` [Compound 4a, 3-(2-Carboxyethyl)benzo[e][1,2,4]triazine 1,4-Dioxide], the IC50 stood at 97 ± 4 µM in the series on SiHa cells [1] (read-out: Anoxic IC50, SiHa, pHe 6.5, 4 h, anoxic); 259 ± 26 µM in the series with SiHa cells [1] (read-out: Anoxic IC50, SiHa, pHe 7.4, 4 h, anoxic); 798 ± 43 µM in the series with SiHa cells [1] (read-out: Oxic IC50, SiHa, pHe 6.5, 4 h, oxic); 1950 ± 170 µM in the series with SiHa cells [1] (read-out: Oxic IC50, SiHa, pHe 7.4, 4 h, oxic). In addition, the “TMR (overall TME ratio = oxic IC50 pHe 7.4/anoxic IC50 pHe 6.5)” value in the series with SiHa cells [1] came to 20.2 ± 2.0. Besides, in the series with SiHa cells [1] (anoxic), the “PCR Anoxic (IC50 at pHe 7.4/IC50 at pHe 6.5)” value is recorded as 2.68 ± 0.29. Besides, the “PCR oxic (IC50 at pHe 7.4/IC50 at pHe 6.5)” value in the series with SiHa cells [1] (oxic) is listed as 2.45 ± 0.25. The “ACR (anoxic cytotoxicity ratio = oxic IC50/anoxic IC50)” value in the series with SiHa cells [1] (pHe 6.5) is on record as 8.26 ± 0.58; with SiHa cells [1] (pHe 7.4) it was 7.54 ± 1.00. In addition, the “IC50 fold higher than for SN30000” value in the series with SiHa cells [1] (pHe 6.5 under anoxia, representative experiment) is on record as “approximately 50 fold”. The “PCR (pH cytotoxicity ratio)” value in the series with SiHa cells [1] (representative experiment (Figure 3), oxia and anoxia) is given as ~ 2.5. In addition, in the series with SiHa cells [1] (representative experiment (Figure 3), pHe 7.4 and 6.5), the “ACR (anoxia cytotoxicity ratio)” value is listed as ~ 8. Besides, the Maximum intracellular concentration in the series with SiHa cells [2] is 4.1 mM.

One may read the IC50 as the concentration that gives 50% inhibition.
